TGI data for 13 molecules are collected here from PubChem BioAssay (NCI).

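The compound was tested at five concentrations on cells cultured in 96-well plates, with a 48-hour exposure period. The concentration for full growth arrest is given as TGI.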

Some test systems named below: SNB-19 CNS; HOP-62 NSCLC; OVCAR-8 ovarian; MOLT-4 leukemia; PC-3 prostate; U251 CNS; SF-295 CNS; A549 NSCLC; HCC-2998 colon; MDA-MB-231 breast.
Common to all, as to experiment: NCI anticancer screen, dose series, 48 h

Take `CC1=C2C(=O)O[C@@H](c3ccoc3)[C@]2(C)CCC1=O`: the TGI in the test with SNB-19 CNS, with HOP-62 NSCLC, in the test on OVCAR-8 ovarian, in the test on MOLT-4 leukemia, in the test with PC-3 prostate and in the test on U251 CNS was > 100 µM throughout. Besides, the TGI in the test with SF-295 CNS, in the test on A549 NSCLC, in the test with HCC-2998 colon and with MDA-MB-231 breast was > 100 µM throughout.
For `CCC1(OC(=O)CN2CCN(CCO)CC2)C(=O)OCc2c1cc1n(c2=O)Cc2cc3ccccc3nc2-1` (stereo not given), the TGI is 28.6 µM in the test on SNB-19 CNS; 4.55 µM in the test with HOP-62 NSCLC; 16 µM in the test with OVCAR-8 ovarian; 1.59 µM with MOLT-4 leukemia; > 100 µM with PC-3 prostate; 2.41 µM in the test with U251 CNS. Also, the TGI came to 15.6 µM with SF-295 CNS, 29.5 µM in the test with A549 NSCLC, 6.29 µM in the test with HCC-2998 colon and 65.7 µM with MDA-MB-231 breast.
Consider `COc1ccccc1/C=C1\Sc2scc(-c3cccc([N+](=O)[O-])c3)[n+]2C1=O`, for which the TGI in the test on SNB-19 CNS was 25.8 µM; in the test on HOP-62 NSCLC, 27.6 µM; in the test on OVCAR-8 ovarian, 24.8 µM; in the test on MOLT-4 leukemia it was 3.44 µM; in the test on PC-3 prostate it was 37.4 µM; in the test on U251 CNS it was 39.6 µM. Also, the TGI with SF-295 CNS was 40.2 µM; in the test with A549 NSCLC, 35.4 µM; in the test with HCC-2998 colon, 22.8 µM; in the test on MDA-MB-231 breast, 19.3 µM.
With `CN(C)CCOc1ccc(I)cc1Cc1ccccc1`, the TGI in the test with SNB-19 CNS turned out to be 28 µM; in the test on HOP-62 NSCLC, 28.6 µM; with OVCAR-8 ovarian it was 30.6 µM; in the test with MOLT-4 leukemia, 20.2 µM; in the test on PC-3 prostate it was 20.5 µM; in the test on U251 CNS, 27.1 µM. In addition, the TGI in the test with SF-295 CNS was 30.1 µM; in the test on A549 NSCLC, 30.5 µM; in the test with HCC-2998 colon, 9.62 µM; with MDA-MB-231 breast it was 12.3 µM.
On to `O=C(CCCN1CCC2(CC1)C(=O)NC(=O)N2c1ccccc1)c1ccc(F)cc1`, for which the TGI with SNB-19 CNS, in the test with HOP-62 NSCLC, in the test on OVCAR-8 ovarian, in the test with MOLT-4 leukemia, in the test with PC-3 prostate and in the test with U251 CNS was > 100 µM in each case. In addition, the TGI in the test with SF-295 CNS, in the test with A549 NSCLC, in the test with HCC-2998 colon and in the test with MDA-MB-231 breast was > 100 µM in each case.
For the molecule `O=[N+]([O-])c1cccc(N=C2c3ccccc3CN2c2cccc([N+](=O)[O-])c2)c1`, the TGI in the test with SNB-19 CNS, in the test with HOP-62 NSCLC, with OVCAR-8 ovarian, in the test on MOLT-4 leukemia, in the test on PC-3 prostate and with U251 CNS was > 100 µM throughout. The TGI in the test on SF-295 CNS, in the test with A549 NSCLC, with HCC-2998 colon and in the test with MDA-MB-231 breast was > 100 µM each time.
Take `N#Cc1cccc(C2ON=C(c3ccc([N+](=O)[O-])cc3)N2C23CC4CC(CC(C4)C2)C3)c1` (stereo not given): the TGI with SNB-19 CNS, with HOP-62 NSCLC, with OVCAR-8 ovarian, in the test with MOLT-4 leukemia, with PC-3 prostate and in the test with U251 CNS was > 100 µM each time. For the same molecule, the TGI in the test on SF-295 CNS, with A549 NSCLC, in the test with HCC-2998 colon and with MDA-MB-231 breast was > 100 µM throughout.
In the case of `CNNC1=NS(=O)(=O)c2cc(C)c(Cl)cc2S1`, the TGI in the test on SNB-19 CNS, with HOP-62 NSCLC, with OVCAR-8 ovarian, with MOLT-4 leukemia, in the test on PC-3 prostate and in the test on U251 CNS was > 10 µM each time. For the same molecule, the TGI with SF-295 CNS, in the test with A549 NSCLC, with HCC-2998 colon and in the test on MDA-MB-231 breast was > 10 µM throughout.
Turning to `O=C(c1ccc(Cl)cc1Cl)N(Cc1cccnc1)C(=S)N(Cc1cccnc1)C(=O)c1ccc(Cl)cc1Cl`, the TGI in the test with SNB-19 CNS was 25.1 µM; in the test with HOP-62 NSCLC, 7.12 µM; in the test with OVCAR-8 ovarian, 13.5 µM; in the test with MOLT-4 leukemia, > 100 µM; in the test on PC-3 prostate, 7.55 µM; in the test with U251 CNS it was 9.88 µM. Besides, the TGI with SF-295 CNS was determined as 41.5 µM; with A549 NSCLC, 38 µM; in the test on HCC-2998 colon, 8.97 µM; in the test on MDA-MB-231 breast it was 6.53 µM.
With `O=C(O)c1cccc(S(=O)(=O)NN2C(=O)CSC2c2ccccc2)c1` (stereo not given), the TGI in the test with SNB-19 CNS, with HOP-62 NSCLC, with OVCAR-8 ovarian, in the test on MOLT-4 leukemia, in the test on PC-3 prostate and in the test on U251 CNS was > 100 µM in each case. Besides, the TGI in the test with SF-295 CNS, with A549 NSCLC, in the test with HCC-2998 colon and in the test with MDA-MB-231 breast was > 100 µM each time.
As to `Cc1cc(C)c(S(=O)(=O)N[C@@H](/C=C(\Br)CO)C(C)C)c(C)c1`, the TGI was > 100 µM in the test on SNB-19 CNS; > 100 µM in the test on HOP-62 NSCLC; > 100 µM in the test with OVCAR-8 ovarian; 75.3 µM in the test with MOLT-4 leukemia; 48.9 µM in the test on PC-3 prostate; > 100 µM in the test on U251 CNS. In addition, the TGI with SF-295 CNS is > 100 µM; with A549 NSCLC, > 100 µM; in the test on HCC-2998 colon, 53.7 µM; with MDA-MB-231 breast, > 100 µM.
As for `CC(NC1=CC(=O)c2ncccc2C1=O)C(O)c1ccccc1` (stereo not given), the TGI in the test with SNB-19 CNS worked out at 20 µM; with HOP-62 NSCLC, 25.9 µM; with OVCAR-8 ovarian it was 36.2 µM; with MOLT-4 leukemia, 41.8 µM; in the test on PC-3 prostate, 70.5 µM; in the test on U251 CNS, 14.3 µM. For the same molecule, the TGI came to 14.9 µM in the test on SF-295 CNS, 12.8 µM in the test with A549 NSCLC, 23.2 µM with HCC-2998 colon and 6.94 µM in the test on MDA-MB-231 breast.
With `O=S(=O)(c1cc(Cl)ccc1Cl)N1CCN(c2ccc(Cl)c(Cl)c2)CC1`, the TGI in the test with SNB-19 CNS was 32.1 µM; in the test on HOP-62 NSCLC, 39.6 µM; in the test on OVCAR-8 ovarian, 51.4 µM; with MOLT-4 leukemia, > 100 µM; with PC-3 prostate it was > 100 µM; in the test with U251 CNS, 54.8 µM. The TGI was 50.5 µM with SF-295 CNS, > 100 µM in the test with A549 NSCLC, > 100 µM in the test on HCC-2998 colon and > 100 µM in the test with MDA-MB-231 breast.
